In patent EP3272739A1 (NodThera Limited, priority 2016, dated 2018):

test system: IL1-β release upon NLRP3 activation in peripheral blood mononuclear cells (PBMC); test: PBMC IC50 determination assay (IL1-β release, ELISA); assay type: cell-based; conditions: Homo sapiens, PBMC, read-out: PBMCs, IC50, µM
Protocol: PBMC IC50 determination assay
The compounds of the present invention were tested for their inhibitory activity against IL1-β release upon NLRP3 activation in peripheral blood mononuclear cells (PBMC).
PBMC were isolated from buffy coats by density gradient centrifugation on Histopaque-1077 (Sigma, cat no. 10771). Isolated cells were seeded into the wells of a 96-well plate and incubated for 3 h with lipopolysaccharide (LPS). Following medium exchange, the compounds of the present invention were added (a single compound per well) and the cells were incubated for 30 min. Next, the cells were stimulated with nigericin (10 µM) for 1 h and the cell culture media from the wells were collected for further analysis.
The release of IL1-β into the media was determined by a quantitative detection of IL1-β in the media using an IL-1β enzyme-linked immunosorbent assay (ELISA) Ready-SET-Go!, eBioscience cat. No. 88-7261-88. Briefly, in a first step, high affinity binding plates (Coming, Costar 9018 or NUNC Maxisorp Cat No. 44-2404) were coated overnight at 4°C with specific capture antibody included in the kit (anti-human IL-1β ref. 14-7018-68). Subsequently, plates were blocked with blocking buffer for 1 h at room temperature (rt) and after washing with a buffer (PBS with 0,05% Tween-20) incubated with protein standard and culture media. After 2 h of incubation at rt, plates were washed and incubated with biotinylated detection antibody included in the kit (anti-human IL-1β Biotin ref. 33-7110-68) for 1 h at rt. Plates were washed and incubated with HRP-streptavidin for 30 min at rt and washed again. The signal was developed after addition of 3,39,5,59-tetramethylbenzidine-peroxidase (TMB) until color appeared and the reaction was stopped by 2 N H2SO4. A microplate spectrophotometer (BioTek) was used to detect signals with […]. The detection range of IL1-β ELISA was […].

Question: `O=C(Nc1c2c(cc3c1CCC3)CCC2)NS(=O)(=O)n1ccc2ccccc21` [Example 1A] was tested. Which IC50 did it give?
Answer: Its IC50 is 1.05 µM.

Question: How did the IC50 turn out when `CC(=O)c1ccn(S(=O)(=O)NC(=O)Nc2c3c(cc4c2CCC4)CCC3)c1` [Example 1B] was run?
Answer: Its IC50 is 1.27 µM.

Question: With `COC(=O)c1ccn(S(=O)(=O)NC(=O)Nc2c3c(cc4c2CCC4)CCC3)c1` [Example 1C] as the molecule, how does the IC50 read?
Answer: The IC50 was 4.07 µM.

Question: With `O=C(Nc1c2c(cc3c1CCC3)CCC2)NS(=O)(=O)n1ccc2ncccc21` [Example 1D] as the molecule, how does the IC50 read?
Answer: Its IC50 is 10.5 µM.

Question: `O=C(Nc1c2c(cc3c1CCC3)CCC2)NS(=O)(=O)n1ncc2ccccc21` [Example 1E] was tested. Which IC50 did it give?
Answer: Its IC50 is 1 µM.

Question: `O=C(Nc1c2c(cc3c1CCC3)CCC2)NS(=O)(=O)n1ccc(C2CC2)c1` [Example 1F] was tested. Which IC50 did it give?
Answer: Its IC50 is 0.4 µM.

Question: How did the IC50 turn out when `CCC(=O)c1ccn(S(=O)(=O)NC(=O)Nc2c3c(cc4c2CCC4)CCC3)c1` [Example 1G] was run?
Answer: Its IC50 is 5 µM.

Question: `O=C(Nc1c2c(cc3c1CCC3)CCC2)NS(=O)(=O)n1ccc2ccncc21` [Example 1H] was tested. Which IC50 did it give?
Answer: The IC50 was 4.93 µM.

Question: Which IC50 does the source give for `CC(=O)c1ccn(S(=O)(=O)NC(=O)Nc2c3c(c(Cl)c4c2CCC4)CCC3)c1` [Example 1I] here?
Answer: The IC50 was 0.91 µM.

Question: Which IC50 does the source give for `O=C(Nc1c2c(cc3c1CCC3)CCC2)NS(=O)(=O)n1ccc([N+](=O)[O-])c1` [Example 1J] here?
Answer: The IC50 was 26.8 µM.

Question: With `O=C(Nc1c2c(cc3c1CCC3)CCC2)NS(=O)(=O)n1cccc1` [Example 1K] as the molecule, how does the IC50 read?
Answer: The IC50 was 1.4 µM.

Question: Which IC50 does the source give for `O=C(Nc1c2c(cc3c1CCC3)CCC2)NS(=O)(=O)n1ccc(C(=O)C(F)(F)F)c1` [Example 1L] here?
Answer: The IC50 was 0.074 µM.

Question: How did the IC50 turn out when `O=C(Nc1c2c(cc3c1CCC3)CCCC2)NS(=O)(=O)n1ncc2ccccc21` [Example 1M] was run?
Answer: The IC50 was 4.62 µM.

Question: Which IC50 does the source give for `O=C(Nc1cc2c(c3c1CCCC3)CCC2)NS(=O)(=O)n1ncc2ccccc21` [Example 1N, 3-{1H,2H,3H,6H,7H,8H,9H -cyclopenta[a]naphthalen-5-yl}-1-(H-indazole-1-sulfonyl)-1-sodiourea] here?
Answer: Its IC50 is 2.03 µM.

Question: With `O=C(Nc1c2c(cc3c1CCC3)CCC2)NS(=O)(=O)n1cc2c(c1)C(=O)CC2` [Example 1O] as the molecule, how does the IC50 read?
Answer: The IC50 was 4.13 µM.

Question: Which IC50 does the source give for `O=C(Nc1c2c(cc3c1CCC3)CCC2)NS(=O)(=O)n1ccc(C(=O)c2ccccc2)c1` [Example 1P] here?
Answer: The IC50 was 2.91 µM.

Question: How did the IC50 turn out when `O=C(Nc1cc2c(c3c1CCC3)CCC2)NS(=O)(=O)n1ccc(C(=O)C(F)(F)F)c1` [Example 1Q] was run?
Answer: Its IC50 is 0.33 µM.

Question: With `CC(=O)c1cn(S(=O)(=O)NC(=O)Nc2c3c(cc4c2CCC4)CCC3)cc1-c1ccccc1` [Example 1T, 3=[(3-acetyl-4-phenyl-1H-pyrrol-1-yl)sulfonyl]-1-(1,2,3,5,6,7-hexahydro-s-indacen-4-yl)-3-sodiourea propan-2-ol solvate] as the molecule, how does the IC50 read?
Answer: The IC50 was 4.76 µM.

Question: How did the IC50 turn out when `CC(C)(O)c1ccn(S(=O)(=O)NC(=O)Nc2c3c(cc4c2CCC4)CCC3)c1` [Example 3A] was run?
Answer: The IC50 was 0.66 µM.

same assay, conditions: Homo sapiens; PBMC primed 3 h with LPS, compound 30 min, nigericin (10 µM) 1 h; IL1-β in media by ELISA; values with * are mean values based on 2-6 measurements, all others single measurements; read-out: PBMCs, IC50

Question: How did the IC50 turn out when `O=C(Nc1c2c(cc3c1CCC3)CCC2)NS(=O)(=O)n1cc2c(c1)C(=O)CCC2` [Example 1R, ammonium [(1,2,3,5,6,7-hexahydro-s-indacen-4-yl)carbamoyl][(4-oxo-4,5,6,7-tetrahydro-2H-isoindol-2-yl)sulfonyl]azanide] was run?
Answer: The IC50 was 1.27 µM.

Question: How did the IC50 turn out when `Cc1cccn1S(=O)(=O)NC(=O)Nc1c2c(cc3c1CCC3)CCC2` [Example 1S, ammonium [(1,2,3,5,6,7-hexahydro-s-indacen-4-yl)carbamoyl][(2-methyl-1H-pyrrol-1-yl)sulfonyl]azanide] was run?
Answer: The IC50 was 0.27 µM.

Question: How did the IC50 turn out when `O=C(Nc1cc2c(c3c1CCC3)CCC2=O)NS(=O)(=O)n1ccc(C(=O)C(F)(F)F)c1` [Example 1U, ammonium [(6-oxo-1,2,3,6,7,8-hexahydroas-indacen-4-yl)carbamoyl]({[3-(trifluoroacetyl)-1H-pyrrol-1-yl]sulfonyl})azanide] was run?
Answer: Its IC50 is 1.82 µM.

Question: With `CC(O)c1ccn(S(=O)(=O)NC(=O)Nc2c3c(cc4c2CCC4)CCC3)c1` (stereo not shown) [Example 2A, 3-(1,2,3,5,6,7-hexahydro-s-indacen-4-yl)-1-{[3-(1-hydroxyethyl)-1H-pyrrol-1-yl]sulfonyl}urea] as the molecule, how does the IC50 read?
Answer: Its IC50 is 1.97 µM.

Question: Which IC50 does the source give for `O=C(Nc1c2c(cc3c1CCC3)CCC2)NS(=O)(=O)n1ccc(C(O)C(F)(F)F)c1` (stereo not shown) [Example 2B, 3-(1,2,3,5,6,7-hexahydro-s-indacen-4-yl)-1-{[3-(2,2,2-trifluoro-1-hydroxyethyl)-1H-pyrrol-1-yl]sulfonyl}urea] here?
Answer: The IC50 was 0.98 µM.

Question: `C=C(C)c1ccn(S(=O)(=O)NC(=O)Nc2c3c(cc4c2CCC4)CCC3)c1` [Example 4A, 3-(1,2,3,5,6,7-hexahydro-s-indacen-4-yl)-1-{[3-(prop-1-en-2-yl)-1H-pyrrol-1-yl]sulfonyl}urea] was tested. Which IC50 did it give?
Answer: Its IC50 is 0.81 µM.
